From doi:10.1101/2022.09.20.508773v1 (biorxiv, 2022)

Target: T1, NΔ47-TPH2-R (Homo sapiens, UniProt Q8IWU9)
T1 sequence (Q8IWU9 48-145): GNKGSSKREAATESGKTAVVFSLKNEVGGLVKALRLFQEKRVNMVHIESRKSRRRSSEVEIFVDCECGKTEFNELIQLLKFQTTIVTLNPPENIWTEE
Test: protein-observed NMR titration, 1H-15N HSQC, 2D line-shape analysis
Format: binding

With `N[C@@H](Cc1ccccc1)C(=O)O` [L-Phe] the Kd was 40.8 ± 0.8 µM.
